Measured values from patent publication US11634425B2, “Pharmaceutical compounds” (priority 2019, dated 2023).
Like-named read-outs stand apart in the source and are kept apart here.

Columns and labels:
RSV A2 = assay: RSV plaque reduction assay; format: cell-based, respiratory syncytial virus (RSV); conditions: human respiratory syncytial virus, HepG2, Hep-G2 cells, mean of at least two experiments
Procedure, shortened: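 RSV A2 at 100 PFU/well was premixed with eight compound dilutions and added to confluent Hep-G2 monolayers for 2 h at 37 °C. Cells were then kept 2 days under a DMEM/2% FBS/0.8% CMC overlay containing compound. Immunostained plaques were counted relative to virus controls, and EC50 came from 4-parameter fits, averaged over at least two experiments.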

in vitro = in vitro ADME; conditions: microsomes, pH 7.4, 1 μM compound, 0.5 mg/mL protein, read-out: Liver Microsomal Stability t1/2
Method: Compounds were subjected to the following assays to investigate liver microsomal stability and hepatocyte stability.
Microsomal Incubation: Experimental Procedure
Pooled liver microsomes were purchased from a reputable commercial supplier and stored at −80° C. prior to use. Microsomes (final protein concentration 0.5 mg/mL), 0.1 M phosphate buffer pH 7.4 and test compound (final substrate concentration 1 μM; final DMSO concentration 0.25%) were pre-incubated at 37° C. prior to the addition of NADPH (final concentration 1 mM) to initiate the reaction. The final incubation volume was 50 μL. A control incubation was included for each compound tested where 0.1 M phosphate buffer pH 7.4 was added instead of NADPH (minus NADPH). Two control compounds were included with each species. All incubations were performed singularly for each test compound. Each compound was incubated for 0, 5, 15, 30 and 45 min. The control (minus NADPH) was incubated for 45 min only. The reactions were stopped by transferring incubate into acetonitrile at the appropriate time points, in a 1:3 ratio. The termination plates are centrifuged at 3,000 rpm for 20 min at 4° C. to precipitate the protein. Following protein precipitation, the sample supernatants were combined in cassettes of up to 4 compounds, internal standard added, and samples analysed by LC-MS/MS. From a plot of ln peak area ratio (compound peak area/internal standard peak area) against time, the gradient of the line was determined. Subsequently, half-life (t1/2) and intrinsic clearance (CLint) were calculated.

Cell cytotoxicity (CC50) = format: cell-based; conditions: human; mean of at least two experiments
Procedure, shortened: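 Values are means of ≥2 independent runs, rounded to whole units, from 4-parameter variable-slope curve fits. Toxicity measured in Hep-G2 cells run alongside RSV plaque-reduction assays.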

SMILES	EC50 (RSV A2)	half-life at 1 μM (in vitro; dog)	half-life at 1 μM (in vitro; human)	half-life at 1 μM (in vitro; rat)	CC50 (Cell cytotoxicity (CC50))
Cc1ccc(-c2nn3cccnc3c2C(=O)N[C@H]2N=C(c3ccccc3)c3ccccc3NC2=O)c(F)n1 [Example 85, 2-(2-Fluoro-6-methylpyridin-3-yl)-N-[(3S)-2-oxo-5-phenyl-1,3-dihydro-1,4-benzodiazepin-3-yl]pyrazolo[1,5-a]pyrimidine-3-carboxamide]	57 nM	1.75 h	> 2.33 h	3.3 h	> 25000 nM
O=C(N[C@H]1N=C(c2ccccc2)c2cccc(F)c2NC1=O)c1c(-c2ccc(F)cc2F)nn2cccnc12 [Example 5, 2-(2,4-Difluorophenyl)-N-[(3S)-9-fluoro-2-oxo-5-phenyl-1,3-dihydro-1,4-benzodiazepin-3-yl]pyrazolo[1,5-a]pyrimidine-3-carboxamide]	39 nM	5.93 h	> 2.33 h	> 2.33 h	> 25000 nM
Cc1cnc(F)c(-c2nn3cccnc3c2C(=O)N[C@H]2N=C(c3ccccc3)c3cccc(F)c3NC2=O)c1 [Example 32, 2-(2-Fluoro-5-methylpyridin-3-yl)-N-[(3S)-9-fluoro-2-oxo-5-phenyl-1,3-dihydro-1,4-benzodiazepin-3-yl]pyrazolo[1,5-a]pyrimidine-3-carboxamide]	86 nM	3.78 h	5.58 h	1.28 h	> 25000 nM
COc1ccc(-c2nn3cccnc3c2C(=O)N[C@H]2N=C(c3ccccc3)c3ccccc3NC2=O)c(F)c1 [Example 14, 2-(2-Fluoro-4-methoxyphenyl)-N-[(3S)-2-oxo-5-phenyl-1,3-dihydro-1,4-benzodiazepin-3-yl]pyrazolo[1,5-a]pyrimidine-3-carboxamide]	41 nM	1.33 h	> 2.33 h	2.72 h	> 25000 nM
Cc1ccc2nc(-c3ccc(F)cc3F)c(C(=O)N[C@H]3N=C(c4ccccc4)c4cccc(F)c4NC3=O)n2n1 [Example 91, 2-(2,4-Difluorophenyl)-N-[(3S)-9-fluoro-2-oxo-5-phenyl-1,3-dihydro-1,4-benzodiazepin-3-yl]-6-methylimidazo[1,2-b]pyridazine-3-carboxamide]	17 nM	4.47 h	1.68 h	0.61 h	> 25000 nM
O=C(N[C@H]1N=C(c2ccccc2)c2cccc(F)c2NC1=O)c1c(-c2ccc(F)cc2F)nc2cccnn12 [Example 89, 2-(2,4-Difluorophenyl)-N-[(3S)-9-fluoro-2-oxo-5-phenyl-1,3-dihydro-1,4-benzodiazepin-3-yl]imidazo[1,2-b]pyridazine-3-carboxamide]	19 nM	18 h	12.3 h	3.1 h	> 25000 nM
CC(C)Nc1ccc(-c2nn3cccnc3c2C(=O)N[C@H]2N=C(c3ccccc3)c3ccccc3NC2=O)c(F)n1 [Example 69, 2-[2-Fluoro-6-(propan-2-ylamino)pyridin-3-yl]-N-[(3S)-2-oxo-5-phenyl-1,3-dihydro-1,4-benzodiazepin-3-yl]pyrazolo[1,5-a]pyrimidine-3-carboxamide]	19 nM	0.447 h	3.22 h	2.43 h	> 25000 nM
O=C(N[C@H]1N=C(c2ccccc2)c2ccccc2NC1=O)c1c(-c2ccccc2)nn2cccnc12 [Example 12, N-[(3S)-2-oxo-5-phenyl-1,3-dihydro-1,4-benzodiazepin-3-yl]-2-phenylpyrazolo[1,5-a]pyrimidine-3-carboxamide]	153 nM	3.87 h	4.4 h	> 2.33 h	> 25000 nM
